According to patent US4226610A, “Herbicidal compounds, preparation thereof and herbicides containing the same” (Meiji Selka Kaisha, Ltd., priority 1978, dated 1980):
Where a name gives a salt, the structure may show the parent alone.

What was measured:
oak = assay: Experiment 3 foliar application to naturally growing shrubs; format: in vivo, Quercus serrata Thunb; settings: after 3 months
Description: (§1) The detail of the assessment made in the following Experiments of the invention was as follows:
(§2) Four months after treatment, evaluation was made for inhibition of reproduction expressed in terms of symbols ranging from (-) to (+++) where (-) means no reproduction, namely complete suppression of reproduction, (±) remarkable suppression of reproduction; (+) considerable suppression of reproduction; (++) medium supprestion of reproduction; and (+++) no suppression of reproduction.
(§3) The compounds of the invention and other compounds listed in Table 5. were diluted to prescribed concentrations and sprayed onto naturally growing shrubs by foliar application in an amount of 150 liter per 10 are.
(§4) 0.1% of octylphenyl polyoxyethanol was added as the surfactant. The killing index (0, no effect; 5, death) after 1 month and 3 months, and the reproduction-inhibiting effect (-, no reproduction; +++, maximum reproduction) after 3 months were determined.

azumanezasa = assay: Experiment 1 foliar application to naturally growing weeds; format: in vivo, Pleioblastus Chino Makino; settings: 4 months
Description: as §1, §2
(§5) The compounds of the invention and other compounds for comparison listed in Table 3 were diluted to prescribed concentrations and sprayed to naturally growing weeds by foliar application in an amount of 150 liter per 10 are.
(§6) 0.1% of octylphenyl polyoxyethanol was added as a surfactant.
(§7) The killing index (0, no effect, 5, death) after 21 days, and the reproduction-inhibiting effect (-, no reproduction; +++, maximum reproduction) after 2 months (manna grass and cockspar grass) and 4 months (other weeds) were determined.

Japanese prickly ash = assay: Experiment 3 foliar application to naturally growing shrubs; format: in vivo, Xanthoxylum piperitum DC.; settings: after 3 months
Description: as §1, §2, §3, §4

eulalia = assay: Experiment 2 foliar application in Japanese cypress afforested land; format: in vivo, Miscanthus sinensis Andress.; set-up: key: 0 = no effect, 5 = death; settings: 0.125%; after 3 months
Protocol: as §1
(§8) The compounds of the invention and other compounds listed in Table 4. were diluted to prescribed concentrations and sprayed to shrubs by foliar application in a Japanese cypress afforested land in an amount of 150 liter per 10 are.
(§9) After 30 days and 3 months, the killing index (0, no effect; 5, death) was determined.
(§10) The heights of plants were 50-70 cm. for Japanese cypress, about 50 cm. for chestnut, 50-90 cm. for miyakozasa, about 100 cm. for eulalia and 70-100 cm. for kumaichigo, respectively.

Japanese bush cranberry = assay: Experiment 3 foliar application to naturally growing shrubs; format: in vivo, Viburnum dilatatum Thunb.; settings: after 3 months
Description: as §1, §2, §3, §4

kumaichigo = assay: Experiment 2 foliar application in Japanese cypress afforested land; format: in vivo, Rubus crataegifolius Bunge; settings: 0.125%; after 3 months
Protocol: as §1, §8, §9, §10

warunasubi = assay: Experiment 1 foliar application to naturally growing weeds; format: in vivo, Solanum carolinensis L.; settings: 4 months
Description: as §1, §2, §5, §6, §7

kiichigo = assay: Experiment 3 foliar application to naturally growing shrubs; format: in vivo, Rubus palmatsu Thunb. forma coptophyllus Makino; settings: after 3 months
Description: as §1, §2, §3, §4

purple nutsedge = assay: Experiment 1 foliar application to naturally growing weeds; format: in vivo, Cyperus rotundus L.; settings: 4 months
Description: as §1, §2, §5, §6, §7

yabugarashi = assay: as above; format: in vivo, Cayratia japonica Houtt.; settings: 4 months
Description: as §1, §2, §5, §6, §7

manna grass = assay: as above; format: in vivo, Digitaria adsceudes Henr.; settings: 2 months
Description: as §1, §2, §5, §6, §7

hedge bindweed = assay: as above; format: in vivo, Calystegis hederacea Wall.; settings: 4 months
Description: as §1, §2, §5, §6, §7

chigaya = assay: as above; format: in vivo, Imperata cylindrica Beauv.; settings: for Reproduction-inhibiting effect: 4 months
Description: as §1, §2, §5, §6, §7

white clover = assay: as above; format: in vivo, Trifolium repens L.; settings: 4 months
Description: as §1, §2, §5, §6, §7

yamazakura = assay: Experiment 3 foliar application to naturally growing shrubs; format: in vivo, Prunus donarium Sieb. var. spontanae Makino; settings: after 3 months
Description: as §1, §2, §3, §4

cockspar grass = assay: Experiment 1 foliar application to naturally growing weeds; format: in vivo, Echinochloa Crusgalli P. Beauv.; settings: 2 months
Description: as §1, §2, §5, §6, §7

lace shrub = assay: Experiment 3 foliar application to naturally growing shrubs; format: in vivo, Stephanandra incisa Zabel; settings: after 3 months
Description: as §1, §2, §3, §4

torch azalea = assay: as above; format: in vivo, Rhododendoron Kaempferi Planch.; settings: after 3 months
Description: as §1, §2, §3, §4

CP(=O)(O)CCC(N)C(=O)O (racemic) [DL-2-Amino-4-methylphosphinobutanoic acid monodiethanolammon] [DL-2-Amino-4-methylphosphinobutanoic acid monodiethanolammonium salt]
+: Reproduction-inhibiting effect (azumanezasa; 0.1%) | Reproduction-inhibiting effect (warunasubi; 0.2%) | Reproduction-inhibiting effect (purple nutsedge; 0.2%)
+++: Reproduction-inhibiting (oak; 0.05%) | Reproduction-inhibiting effect (azumanezasa; 0.05%) | Reproduction-inhibiting (Japanese prickly ash; 0.05%) | Reproduction-inhibiting (Japanese bush cranberry; 0.05%) | Reproduction-inhibiting effect (warunasubi; 0.05%) | Reproduction-inhibiting effect (warunasubi; 0.1%) | Reproduction-inhibiting (kiichigo; 0.05%) | Reproduction-inhibiting effect (purple nutsedge; 0.05%) | Reproduction-inhibiting effect (purple nutsedge; 0.1%) | Reproduction-inhibiting effect (yabugarashi; 0.05%) | Reproduction-inhibiting effect (yabugarashi; 0.1%) | Reproduction-inhibiting effect (manna grass; 0.05%) | Reproduction-inhibiting effect (hedge bindweed; 0.05%) | Reproduction-inhibiting effect (hedge bindweed; 0.1%) | Reproduction-inhibiting effect (hedge bindweed; 0.2%) | Reproduction-inhibiting effect (chigaya; 0.05%) | Reproduction-inhibiting effect (white clover; 0.05%) | Reproduction-inhibiting effect (white clover; 0.1%) | Reproduction-inhibiting (yamazakura; 0.05%) | Reproduction-inhibiting effect (cockspar grass; 0.05%) | Reproduction-inhibiting (lace shrub; 0.05%) | Reproduction-inhibiting (torch azalea; 0.05%)
-: Reproduction-inhibiting (oak; 0.2%) | Reproduction-inhibiting effect (azumanezasa; 0.2%) | Reproduction-inhibiting (Japanese prickly ash; 0.2%) | Reproduction-inhibiting (kiichigo; 0.2%) | Reproduction-inhibiting effect (manna grass; 0.2%) | Reproduction-inhibiting effect (chigaya; 0.2%) | Reproduction-inhibiting effect (white clover; 0.2%) | Reproduction-inhibiting (yamazakura; 0.2%) | Reproduction-inhibiting effect (cockspar grass; 0.2%) | Reproduction-inhibiting (lace shrub; 0.2%) | Reproduction-inhibiting (torch azalea; 0.2%)
2.5: Killing index of Upperground parts (chigaya; 0.05%, 21 days)
++: Reproduction-inhibiting (oak; 0.1%) | Reproduction-inhibiting (Japanese prickly ash; 0.1%) | Reproduction-inhibiting (Japanese bush cranberry; 0.1%) | Reproduction-inhibiting (Japanese bush cranberry; 0.2%) | Reproduction-inhibiting (kiichigo; 0.1%) | Reproduction-inhibiting effect (yabugarashi; 0.2%) | Reproduction-inhibiting effect (manna grass; 0.1%) | Reproduction-inhibiting effect (chigaya; 0.1%) | Reproduction-inhibiting (yamazakura; 0.1%) | Reproduction-inhibiting effect (cockspar grass; 0.1%) | Reproduction-inhibiting (lace shrub; 0.1%) | Reproduction-inhibiting (torch azalea; 0.1%)
1.5: Killing index (eulalia) | Killing index (kumaichigo)
